The record followed here is ChEMBL document CHEMBL1201862, “PubChem BioAssay data set” (2004).

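Dose response: 5 concentrations. Exposure: 48 h. Format: 96-well plates. Endpoint: linear interpolation; highest concentration if not reached. Here, GI50 denotes the concentration required for 50% inhibition of growth.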 Activity calls are given as the source filed them. No stated cut-off is given here; in the data, active = GI50 up to about 1.1 µM and inactive = higher. Some results are limits rather than exact numbers.

Among the test systems are MCF7; MOLT-4; SK-MEL-5; UACC-62; NCI-H226; CCRF-CEM; 786-0; SN12C; Malme-3M; SNB-75; MDA-MB-435; U-251; SF-295; SK-OV-3; HCC 2998; SNB-19; DLD-1; COLO 205; OVCAR-4; SF-268.
What all share (assay): NCI tumour cell line growth inhibition, 48 h

Regarding `CCCCCCCCCCCCCC(=O)OC(/C=C/C(C)C)C(O)C(O)C(OC)C(=O)NC1CCCCN(C)C1=O` (stereo not given), the GI50 in the test on MCF7 was 1.93 µM (inactive); in the test with MOLT-4, 2.7 µM (inactive); in the test on SK-MEL-5, 3.19 µM (inactive); with UACC-62, 3.21 µM (inactive); with NCI-H226, 4.85 µM (inactive); with CCRF-CEM, 3.95 µM (inactive). The GI50 was 1.28 µM (inactive) in the test with 786-0; 3.23 µM (inactive) with SN12C; 2.11 µM (inactive) with Malme-3M; 7.94 µM (inactive) in the test on SNB-75; 5.25 µM (inactive) with MDA-MB-435; 6.5 µM (inactive) with U-251. Moreover, the GI50 in the test on SF-295 was 3.95 µM (inactive); with SK-OV-3 it was 4.49 µM (inactive); in the test with HCC 2998, 7.96 µM (inactive); in the test with SNB-19, 1.45 µM (inactive); in the test on DLD-1 it was 1.56 µM (inactive); with COLO 205, 1.85 µM (inactive). Moreover, the GI50 is 6.12 µM (inactive) in the test with OVCAR-4 and 5.27 µM (inactive) in the test on SF-268.

For `CCCCCCCCCC[S+]([O-])CC(CO)NC(=O)/C=C/c1c(C)nc(O)nc1O` (stereo not given), the GI50 in the test with MCF7 was 0.252 µM (active); with MOLT-4 it was 0.518 µM (active); in the test with SK-MEL-5 it was 0.918 µM (active); in the test on UACC-62, 0.628 µM (active); with NCI-H226 it was 0.8 µM (active); with CCRF-CEM, 0.136 µM (active). In addition, the GI50 in the test on 786-0 is 10.9 µM (inactive); in the test on SN12C it was 0.126 µM (active); with Malme-3M, 0.47 µM (active); with SNB-75, 0.272 µM (active); in the test on MDA-MB-435, 14 µM (inactive); in the test with U-251 it was 0.132 µM (active). Moreover, the GI50 with SK-OV-3 was 1.38 µM (inactive); in the test with HCC 2998, 0.244 µM (active); in the test on DLD-1, 0.476 µM (active); in the test on COLO 205, 0.247 µM (active); with OVCAR-4 it was 0.199 µM (active); with SF-268 it was 0.149 µM (active).

Consider `COc1cc2c(cc1OC)C1(c3ccccc3)ON=C(c3ccccc3)N1CS2` (stereo not given), for which the GI50 is 16.1 µM (inactive) in the test with MOLT-4; > 100 µM (inactive) in the test on SK-MEL-5; 45.8 µM (inactive) in the test with UACC-62; > 100 µM (inactive) with NCI-H226; 39.3 µM (inactive) in the test with CCRF-CEM; > 100 µM (inactive) with 786-0. In addition, the GI50 was > 100 µM (inactive) in the test with SN12C; > 100 µM (inactive) in the test on Malme-3M; > 100 µM (inactive) in the test with SNB-75; > 100 µM (inactive) with U-251; 60.1 µM (inactive) in the test on SF-295; > 100 µM (inactive) in the test on SK-OV-3. The GI50 in the test with HCC 2998, in the test with SNB-19, in the test with DLD-1, with COLO 205, in the test on OVCAR-4 and in the test with SF-268 was > 100 µM (inactive) throughout.

Turning to `COc1cc2c(c(OC)c1OC)-c1ccc(SC)c(=O)cc1[C@@H](NCc1cccc(C#N)c1)CC2`, the GI50 in the test with MOLT-4 is 0.0328 µM (active); in the test with SK-MEL-5, 0.00693 µM (active); with UACC-62, 0.00668 µM (active); in the test with NCI-H226, 0.0226 µM (active); in the test on CCRF-CEM, 0.0229 µM (active); in the test on 786-0 it was 0.0332 µM (active). Also, the GI50 was 0.0313 µM (active) in the test with SN12C; 0.0232 µM (active) in the test on Malme-3M; 0.00516 µM (active) with SNB-75; 0.0178 µM (active) in the test on U-251; 0.0207 µM (active) with SF-295; 0.0115 µM (active) in the test with SK-OV-3. The GI50 is 0.0198 µM (active) with HCC 2998; 0.045 µM (active) in the test on SNB-19; 0.0245 µM (active) in the test on DLD-1; 0.0202 µM (active) in the test on COLO 205; 0.0075 µM (active) in the test with OVCAR-4; 0.0164 µM (active) in the test with SF-268.

As for `CCCCCCCCCCCCC(CC)CCCCC(=O)O` (stereo not given), the GI50 in the test on MOLT-4 was 27 µM (inactive); in the test with SK-MEL-5, > 100 µM (inactive); with UACC-62, > 100 µM (inactive); with NCI-H226, > 100 µM (inactive); in the test with CCRF-CEM, 22.6 µM (inactive); in the test with 786-0, 31.8 µM (inactive). For the same compound, the GI50 is > 83 µM (inactive) in the test with SN12C; > 100 µM (inactive) in the test with Malme-3M; > 100 µM (inactive) with SNB-75; > 47.6 µM (inactive) in the test on U-251; > 100 µM (inactive) with SF-295; > 100 µM (inactive) in the test on SK-OV-3. Moreover, the GI50 is > 100 µM (inactive) with HCC 2998; > 100 µM (inactive) in the test with SNB-19; > 100 µM (inactive) with DLD-1; > 58.3 µM (inactive) with COLO 205; > 100 µM (inactive) in the test with OVCAR-4; > 100 µM (inactive) in the test on SF-268.

In the case of `COc1cccc(NC(=O)CSc2nnc(Cc3ccccc3)o2)c1`, the GI50 in the test on MOLT-4 was > 100 µM (inactive); in the test on SK-MEL-5, 57 µM (inactive); in the test on UACC-62 it was > 100 µM (inactive); in the test with NCI-H226, > 100 µM (inactive); in the test on CCRF-CEM, > 100 µM (inactive); with 786-0, > 100 µM (inactive). Besides, the GI50 in the test on SN12C was > 100 µM (inactive); in the test with Malme-3M, > 100 µM (inactive); with SNB-75, 51.8 µM (inactive); with U-251, > 100 µM (inactive); with SF-295, > 100 µM (inactive); in the test with SK-OV-3, > 100 µM (inactive). In addition, the GI50 with HCC 2998, in the test with SNB-19, with DLD-1, in the test with COLO 205, with OVCAR-4 and in the test on SF-268 was > 100 µM (inactive) in each case.

As for `CCOC(=O)CC(NC(=O)c1nc[nH]c1[N+](=O)[O-])C(=O)OCC` (stereo not given), the GI50 in the test with MOLT-4 is 43.1 µM (inactive); in the test on SK-MEL-5, 56 µM (inactive); in the test on UACC-62, 66.1 µM (inactive); with NCI-H226, 23 µM (inactive); in the test on CCRF-CEM, 37.4 µM (inactive); with 786-0, 52 µM (inactive). Besides, the GI50 in the test with SN12C is 42.5 µM (inactive); with Malme-3M it was > 100 µM (inactive); in the test with SNB-75 it was > 100 µM (inactive); with U-251 it was 15.3 µM (inactive); with SF-295, 33.5 µM (inactive); with SK-OV-3 it was > 100 µM (inactive). Moreover, the GI50 is 30.5 µM (inactive) in the test with HCC 2998; 56.6 µM (inactive) with SNB-19; 39 µM (inactive) in the test on DLD-1; 49.2 µM (inactive) in the test on COLO 205; 50.7 µM (inactive) with OVCAR-4; 40.6 µM (inactive) in the test on SF-268.

Consider `CCCCOP1(=O)CC(C)=C(Cl)C(C)(OC)C1` (stereo not given), for which the GI50 was 34.4 µM (inactive) in the test with MOLT-4; > 100 µM (inactive) in the test on SK-MEL-5; > 100 µM (inactive) in the test on UACC-62; > 100 µM (inactive) in the test with NCI-H226; 28.4 µM (inactive) with CCRF-CEM; > 100 µM (inactive) in the test with 786-0. For the same compound, the GI50 in the test on SN12C, in the test on Malme-3M, with SNB-75, in the test with U-251, in the test on SF-295 and in the test on SK-OV-3 was > 100 µM (inactive) each time. Also, the GI50 in the test on HCC 2998 was > 100 µM (inactive); with SNB-19, > 100 µM (inactive); with DLD-1, 44.8 µM (inactive); with COLO 205, > 100 µM (inactive); in the test on OVCAR-4, > 100 µM (inactive); in the test on SF-268, > 100 µM (inactive).

Regarding `COc1ccc(C(=C[N+](=O)[O-])c2ccc(OC)cc2)cc1`, the GI50 in the test on MOLT-4 was 3.17 µM (inactive); in the test on SK-MEL-5, 28.6 µM (inactive); with UACC-62, 9.55 µM (inactive); with NCI-H226, 24.3 µM (inactive); with CCRF-CEM it was 10.1 µM (inactive); in the test on 786-0, 20.8 µM (inactive). The GI50 was 24 µM (inactive) in the test on SN12C; 13.3 µM (inactive) in the test with Malme-3M; 1.87 µM (inactive) in the test on SNB-75; 11.3 µM (inactive) in the test on U-251; 5.96 µM (inactive) in the test on SF-295; 14.3 µM (inactive) in the test with SK-OV-3. Moreover, the GI50 with HCC 2998 is 11.4 µM (inactive); in the test with SNB-19, 22.2 µM (inactive); with DLD-1 it was 16.7 µM (inactive); with COLO 205 it was 9.79 µM (inactive); with OVCAR-4 it was 34.4 µM (inactive); with SF-268, 20 µM (inactive).

On to `CN/C(=N\C#N)N(Cc1ccccc1)Cc1ccccc1`, for which the GI50 in the test with MOLT-4, with SK-MEL-5, in the test with UACC-62, in the test on NCI-H226, in the test on CCRF-CEM and in the test with 786-0 was > 100 µM (inactive) throughout. Moreover, the GI50 with SN12C, in the test on Malme-3M, with SNB-75, with U-251, in the test with SF-295 and with SK-OV-3 was > 100 µM (inactive) in each case. The GI50 with HCC 2998, with SNB-19, in the test on DLD-1, with COLO 205, with OVCAR-4 and in the test on SF-268 was > 100 µM (inactive) each time.

With `COc1ccc2c(=O)c([Se]c3coc4cc(OC)ccc4c3=O)coc2c1`, the GI50 with MOLT-4 is 51.8 µM (inactive); with SK-MEL-5, > 100 µM (inactive); in the test on UACC-62 it was > 100 µM (inactive); with NCI-H226 it was 52 µM (inactive); with CCRF-CEM, 46.7 µM (inactive); in the test on 786-0, 44.5 µM (inactive). In addition, the GI50 with SN12C is 54.5 µM (inactive); with Malme-3M, 34.3 µM (inactive); in the test with SNB-75, 20.8 µM (inactive); with U-251, 42.8 µM (inactive); in the test with SF-295, 24.7 µM (inactive); with SK-OV-3, > 100 µM (inactive). Besides, the GI50 in the test on HCC 2998 is > 100 µM (inactive); with SNB-19, > 100 µM (inactive); in the test with DLD-1, 36.6 µM (inactive); in the test with COLO 205 it was > 100 µM (inactive); with OVCAR-4, 44.6 µM (inactive); in the test on SF-268 it was > 100 µM (inactive).
